Assay results as given in ChEMBL document CHEMBL1201862, “PubChem BioAssay data set” (2004).
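Assay format: 96-well plates, 48-hour exposure. GI50: concentration for 50% inhibition of growth.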 Active and inactive are the calls of the source. Cut-off read from the data, not from the text of the source: active = GI50 up to about 1.1 µM and inactive = higher.

Key:
Assay in all cases: growth of human tumour cells (NCI), 48 h
A498 = tested on: A498
HOP-62 = tested on: HOP-62
DMS-114 = tested on: DMS-114
UO-31 = tested on: UO-31
SNB-78 = tested on: SNB-78
MOLT-4 = tested on: MOLT-4
ACHN = tested on: ACHN
LXFL 529 = tested on: LXFL 529
CAKI-1 = tested on: CAKI-1
SR = tested on: SR
K562 = tested on: K562
HCC 2998 = tested on: HCC 2998
786-0 = tested on: 786-0
HT-29 = tested on: HT-29
SF-539 = tested on: SF-539
M19-MEL = tested on: M19-MEL
COLO 205 = tested on: COLO 205
NCI-H460 = tested on: NCI-H460
SF-295 = tested on: SF-295
SNB-75 = tested on: SNB-75
SN12C = tested on: SN12C
CCRF-CEM = tested on: CCRF-CEM
SNB-19 = tested on: SNB-19
EKVX = tested on: EKVX
RPMI-8226 = tested on: RPMI-8226
KM12 = tested on: KM12
KM-20L2 = tested on: KM-20L2
UACC-257 = tested on: UACC-257
DMS-273 = tested on: DMS-273
OVCAR-3 = tested on: OVCAR-3
OVCAR-4 = tested on: OVCAR-4
HCT-116 = tested on: HCT-116
NCI-H23 = tested on: NCI-H23
U-251 = tested on: U-251
HCT-15 = tested on: HCT-15
HOP-18 = tested on: HOP-18
A549 = tested on: A549
HL-60 = tested on: HL-60
RXF 393 = tested on: RXF 393
IGROV-1 = tested on: IGROV-1
OVCAR-8 = tested on: OVCAR-8
UACC-62 = tested on: UACC-62
SK-MEL-2 = tested on: SK-MEL-2
DLD-1 = tested on: DLD-1
SW-620 = tested on: SW-620
SK-MEL-28 = tested on: SK-MEL-28
HOP-92 = tested on: HOP-92
SK-OV-3 = tested on: SK-OV-3
MCF7 = tested on: MCF7
SK-MEL-5 = tested on: SK-MEL-5
SF-268 = tested on: SF-268
LOX IMVI = tested on: LOX IMVI
NCI/ADR-RES = tested on: NCI/ADR-RES
NCI-H226 = tested on: NCI-H226
XF498 = tested on: XF498
NCI-H522 = tested on: NCI-H522
OVCAR-5 = tested on: OVCAR-5
Malme-3M = tested on: Malme-3M

Measured: GI50

COC1/C(=C\c2ccccc2I)c2ccccc2N1C(C)=O (stereo not given)
14.2 µM: HCT-15
inactive: A498 15.8 µM | HOP-62 17.2 µM | DMS-114 17 µM | UO-31 2.48 µM | SNB-78 25.2 µM | MOLT-4 14.1 µM | ACHN 19.5 µM | LXFL 529 12.9 µM | CAKI-1 17.1 µM | SR 14.4 µM | K562 15.6 µM | HCC 2998 16 µM | 786-0 18.1 µM | HT-29 15.6 µM | SF-539 16.4 µM | M19-MEL 19.6 µM | COLO 205 17.6 µM | NCI-H460 17.6 µM | SF-295 14.3 µM | SNB-75 14.3 µM | SN12C 15.2 µM | CCRF-CEM 17 µM | SNB-19 22.6 µM | EKVX 15.1 µM | RPMI-8226 8.87 µM | KM12 15.6 µM | KM-20L2 15.7 µM | UACC-257 18.3 µM | DMS-273 11.7 µM | OVCAR-3 16.6 µM | OVCAR-4 16.2 µM | HCT-116 13.8 µM | NCI-H23 15.7 µM | U-251 18.6 µM | HOP-18 19 µM | A549 16 µM | HL-60 3.46 µM | RXF 393 5.69 µM | IGROV-1 18.1 µM | OVCAR-8 30 µM | UACC-62 13 µM | SK-MEL-2 17.5 µM | DLD-1 15.5 µM | SW-620 20.6 µM | SK-MEL-28 17.3 µM | HOP-92 2.2 µM

CC1C(=O)CC(c2cccs2)N(N=O)C1c1cccs1 (stereo not given)
inactive: A498 13.7 µM | HOP-62 97.7 µM | UO-31 43.6 µM | SNB-78 35.7 µM | MOLT-4 25.8 µM | CAKI-1 > 100 µM | K562 15.8 µM | HCC 2998 30.4 µM | SK-OV-3 29.8 µM | MCF7 19.3 µM | SK-MEL-5 33.4 µM | HT-29 23.5 µM | SF-539 57.5 µM | M19-MEL 47.8 µM | COLO 205 53.1 µM | NCI-H460 34.8 µM | SF-295 24.7 µM | SNB-75 33.1 µM | SN12C 69.8 µM | CCRF-CEM 34 µM | SF-268 97.3 µM | SNB-19 > 85.3 µM | LOX IMVI 56.5 µM | EKVX 57.1 µM | RPMI-8226 23.7 µM | KM12 54.1 µM | NCI/ADR-RES 26.6 µM | KM-20L2 71 µM | UACC-257 39.1 µM | DMS-273 38.5 µM | OVCAR-3 47 µM | OVCAR-4 50.2 µM | HCT-116 46.2 µM | NCI-H23 40.6 µM | NCI-H226 > 92 µM | U-251 68.2 µM | HOP-18 75.2 µM | A549 58.3 µM | HL-60 26.7 µM | XF498 3.08 µM | RXF 393 24.9 µM | IGROV-1 98.6 µM | OVCAR-8 > 42 µM | UACC-62 59.7 µM | SK-MEL-2 49.9 µM | DLD-1 70.3 µM | SW-620 54.6 µM | NCI-H522 28.2 µM | SK-MEL-28 53.2 µM | OVCAR-5 > 100 µM | Malme-3M > 82 µM | HOP-92 23.7 µM
46.1 µM: HCT-15
